Columns and labels:
Format in all cases: biochemical
Recombinant human TRKB = target: T1, Recombinant human TRKB (Homo sapiens, UniProt Q16620); test: In vitro activity test on TRKB kinase (HTRF KinEASE TK); conditions: 4.77 μM ATP, 50 min
T1 construct: purchased Carna Biosciences
Experimental: (§1) Biological Test Example 1 In Vitro Activity Test on TRKA, TRKB, TRKC Kinase
(§2) Recombinant human TRKA, TRKB, TRKC proteins were purchased from Carna Biosciences. HTRF KinEASE TK kit was purchased from Cisbio Bioassays. Synergy Neo 2 of Biotek was used to read the plate.
(§3) The tested compound was subjected to 3-fold serial dilution to reach a final concentration of 1 μM to 0.05 nM (10 concentrations), duplicates for each concentration; and the DMSO concentration in the detection reaction was 1%.
0.037 ng/μL TRKB protein kinase, 1 μM TK Substrate-biotin polypeptide substrate, 4.77 μM ATP, 1× enzymatic buffer, 5 mM MgCl2, and 1 mM DTT. The detection plate was White Proxiplate 384-Plus plate (PerkinElmer), and incubated at room temperature for 50 min, and the assay volume was 10 μL.
(§4) 10 μL of detection reagent was added to the plate (containing 0.125 μM SA-XL665 and 5 μL 1×TK-Antibody) and incubated overnight at room temperature, and Synergy Neo 2 was used to read the plate.
(§5) The 665/620 Ratio was converted according to the following formula into inhibition rate (%)=(1−Ratiotest/Ratiomax)×100%. Ratiomax was a positive control without tested compound, and Ratiotest was the value of each concentration of different compounds. IC50 (nM) data was obtained by 4 parameter curve fitting (see Table 1).

[1] = target: T2, recombinant human TRKA (G595R) (Homo sapiens, UniProt P04629, G595R); test: In vitro activity test on mutant TRKA (G595R) (HTRF KinEASE TK); conditions: 4.5 μM ATP, 30 min
T2 construct: purchased SignalChem
Experimental: (§6) Biological Test Example 2 In Vitro Activity Test on Mutant TRKA (G595R), TRKA (G667C) and TRKC (G623R)
(§7) The recombinant human TRKA (G595R), TRKA (G667C) and TRKC (G623R) proteins were purchased from SignalChem. HTRF kinEASE TK kit was purchased from CisbioBioassays. Synergy Neo 2 of Biotek was used to read the plate.
(§8) The tested compound was subjected to 4-fold serial dilution to reach a final concentration of 1 μM to 0.004 nM (10 concentrates), duplicates for each concentration; and 1% DMSO was present in the detection reaction.
0.12 ng/μL TRKA (G595R) kinase, 1 μM TK Substrate-biotin polypeptide substrate, 4.5 μM ATP, 1× enzymatic buffer, 5 mM MgCl2, and 1 mm DTT. The detection plate was White Proxiplate384-Plus plate (PerkinElmer), and incubated at room temperature for 30 min, and the assay volume was 10 μL.
as §4
(§9) The value of 665/620 Ratio minus the value of negative control wells without enzyme, then the obtained value was converted according to the following formula into inhibition rate (%)=(1−Ratiotest/Ratiomax)×100%. Ratiomax was a positive control without tested compound, and Ratiotest was the value of each concentration of different compounds. IC50 (nM) data was obtained by 4 parameter curve fitting (see Table 1).

Recombinant human TRKA = target: T3, Recombinant human TRKA (Homo sapiens, UniProt P04629); test: In vitro activity test on TRKA kinase (HTRF KinEASE TK); conditions: 14.68 μM ATP, 40 min
T3 construct: purchased Carna Biosciences
Experimental: as §1, §2, §3
0.2 ng/μL TRKA protein kinase, 1 μM TK Substrate-biotin polypeptide substrate, 14.68 μM ATP, 1× enzymatic buffer, 5 mM MgCl2, and 1 mM DTT. The detection plate was White Proxiplate384-Plus plate (PerkinElmer), and incubated at room temperature for 40 min, and the assay volume was 10 μL.
as §4, §5

[2] = target: T4, recombinant human TRKA (G667C) (Homo sapiens, UniProt P04629, G667C); test: In vitro activity test on mutant TRKA (G667C) (HTRF KinEASE TK); conditions: 5.5 μM ATP, 30 min
T4 construct: purchased SignalChem
Experimental: as §6, §7, §8
0.026 ng/μL TRKA (G667C) kinase, 1 μM TK Substrate-biotin polypeptide substrate, 5.5 μm ATP, 1× enzymatic buffer, 5 mM MgCl2, and 1 mM DTT. The detection plate was White Proxiplate 384-Plus plate (PerkinElmer), and incubated at room temperature for 30 min, the assay volume was 10 μL.
as §4, §9

Recombinant human TRKC = target: T5, Recombinant human TRKC (Homo sapiens, UniProt Q16288); test: In vitro activity test on TRKC kinase (HTRF KinEASE TK); conditions: 25.64 μM ATP, 40 min
T5 construct: purchased Carna Biosciences
Experimental: as §1, §2, §3
0.037 ng/μL TRKC protein kinase, 1 μM TK Substrate-biotin polypeptide substrate, 25.64 μM ATP, 1× enzymatic buffer, 5 mM MgCl2, and 1 mM DTT. The detection plate was White Proxiplate 384-Plus plate (PerkinElmer), and incubated at room temperature for 40 min, and the assay volume was 10 μL.
as §4, §5

T4 sequence (P04629 33-796 G667C): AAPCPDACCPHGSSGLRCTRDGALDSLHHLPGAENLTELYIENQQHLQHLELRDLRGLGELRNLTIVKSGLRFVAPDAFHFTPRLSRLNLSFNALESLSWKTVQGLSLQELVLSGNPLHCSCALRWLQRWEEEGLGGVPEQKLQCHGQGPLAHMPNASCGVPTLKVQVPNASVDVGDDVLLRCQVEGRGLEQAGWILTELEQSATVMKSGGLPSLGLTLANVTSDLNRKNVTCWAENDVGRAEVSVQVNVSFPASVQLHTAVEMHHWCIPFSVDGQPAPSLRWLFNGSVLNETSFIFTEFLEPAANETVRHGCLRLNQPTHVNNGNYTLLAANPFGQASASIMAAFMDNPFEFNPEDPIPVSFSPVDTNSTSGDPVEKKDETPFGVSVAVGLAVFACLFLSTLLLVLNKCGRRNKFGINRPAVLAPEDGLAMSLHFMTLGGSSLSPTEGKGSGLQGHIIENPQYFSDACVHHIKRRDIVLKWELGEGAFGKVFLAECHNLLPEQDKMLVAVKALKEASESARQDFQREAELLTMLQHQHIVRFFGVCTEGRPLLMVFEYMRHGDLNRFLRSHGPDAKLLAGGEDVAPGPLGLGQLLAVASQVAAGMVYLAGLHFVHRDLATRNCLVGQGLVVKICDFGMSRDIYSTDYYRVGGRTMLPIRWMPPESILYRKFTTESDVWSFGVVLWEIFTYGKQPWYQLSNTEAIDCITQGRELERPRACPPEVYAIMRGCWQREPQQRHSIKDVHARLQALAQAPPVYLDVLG
T1 sequence (Q16620 32-822): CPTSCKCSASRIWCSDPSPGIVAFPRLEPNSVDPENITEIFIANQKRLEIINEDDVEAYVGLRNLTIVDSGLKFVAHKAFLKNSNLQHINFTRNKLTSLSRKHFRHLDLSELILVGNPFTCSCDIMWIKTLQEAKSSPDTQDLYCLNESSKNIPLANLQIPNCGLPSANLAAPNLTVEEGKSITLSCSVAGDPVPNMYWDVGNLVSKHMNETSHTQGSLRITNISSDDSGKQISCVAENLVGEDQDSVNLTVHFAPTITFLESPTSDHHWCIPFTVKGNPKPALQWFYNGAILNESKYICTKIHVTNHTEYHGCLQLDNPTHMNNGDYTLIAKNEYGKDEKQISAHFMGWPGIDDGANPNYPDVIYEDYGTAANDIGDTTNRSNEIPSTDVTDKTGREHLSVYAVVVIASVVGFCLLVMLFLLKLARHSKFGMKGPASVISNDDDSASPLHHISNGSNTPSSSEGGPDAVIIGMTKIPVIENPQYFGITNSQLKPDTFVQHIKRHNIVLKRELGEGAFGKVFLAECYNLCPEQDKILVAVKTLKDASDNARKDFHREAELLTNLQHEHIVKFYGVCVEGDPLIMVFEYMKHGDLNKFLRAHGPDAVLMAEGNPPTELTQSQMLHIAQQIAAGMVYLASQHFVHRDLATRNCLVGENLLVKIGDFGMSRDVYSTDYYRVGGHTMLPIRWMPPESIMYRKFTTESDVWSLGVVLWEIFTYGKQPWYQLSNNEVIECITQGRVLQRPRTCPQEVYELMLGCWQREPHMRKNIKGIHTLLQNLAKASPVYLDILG
T2 sequence (P04629 33-796 G595R): as the sequence (P04629 33-796 G667C) above, with G563R, C635G counted along it
T5 sequence (Q16288 32-839): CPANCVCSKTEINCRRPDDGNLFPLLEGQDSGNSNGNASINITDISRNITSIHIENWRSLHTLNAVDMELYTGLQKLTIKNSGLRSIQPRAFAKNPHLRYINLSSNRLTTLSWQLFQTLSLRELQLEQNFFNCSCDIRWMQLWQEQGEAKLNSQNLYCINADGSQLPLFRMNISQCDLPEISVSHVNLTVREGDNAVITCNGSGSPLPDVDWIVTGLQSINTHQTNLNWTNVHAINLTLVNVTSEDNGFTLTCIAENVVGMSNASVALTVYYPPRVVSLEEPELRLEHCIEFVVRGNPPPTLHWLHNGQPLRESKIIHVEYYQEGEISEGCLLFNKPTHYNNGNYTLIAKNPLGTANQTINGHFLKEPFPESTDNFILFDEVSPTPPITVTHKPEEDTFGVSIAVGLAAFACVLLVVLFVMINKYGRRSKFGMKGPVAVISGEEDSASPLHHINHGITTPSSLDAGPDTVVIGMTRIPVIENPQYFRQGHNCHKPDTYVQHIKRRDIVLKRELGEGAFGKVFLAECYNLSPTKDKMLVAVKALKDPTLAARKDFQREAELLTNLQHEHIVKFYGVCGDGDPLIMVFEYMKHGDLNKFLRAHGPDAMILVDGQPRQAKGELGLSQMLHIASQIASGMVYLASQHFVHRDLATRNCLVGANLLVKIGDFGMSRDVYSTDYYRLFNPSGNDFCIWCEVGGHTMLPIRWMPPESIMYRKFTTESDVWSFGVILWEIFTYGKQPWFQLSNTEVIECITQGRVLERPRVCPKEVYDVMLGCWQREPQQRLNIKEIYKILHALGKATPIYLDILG
T3 sequence (P04629 33-796): as the sequence (P04629 33-796 G667C) above, with C635G counted along it

Row | SMILES | IC50 (Recombinant human TRKB) [nM] | IC50 [1] [nM] | IC50 (Recombinant human TRKA) [nM] | IC50 [2] [nM] | IC50 (Recombinant human TRKC) [nM]
1 | OC1CCC(Nc2ccnc3ccc(N4C[C@@H](F)C[C@@H]4c4cc(F)ccc4F)nc23)C1 (stereo partly drawn) [Example 2, 3-((6-((2R,4S)-2-(2,5-difluorophenyl)-4-fluoropyrrolidin-1-yl)-1,5-naphthyridin-4-yl)amino)cyclopentan-1-ol] | < 10 | < 10 | < 10 | < 10 | < 10
2 | NC(=O)c1ccnc2ccc(N3CCC[C@@H]3c3cc(F)ccc3F)nc12 [Example 10, (R)-6-(2-(2,5-difluorophenyl)pyrrolidin-1-yl)-1,5-naphthyridin-4-carboxamide] | < 1 | < 1 | < 1 | < 100 | < 1
3 | Fc1ccc(F)c([C@H]2C[C@H](F)CN2c2ccc3nccc(-c4cnn(C5CCNCC5)c4)c3n2)c1 [Example 11, 2-((2R,4S)-2-(2,5-difluorophenyl)-4-fluoropyrrolidin-1-yl)-8-(1-(piperidin-4-yl)-1H-pyrizol-4-yl)-1,5-naphthyridine] | < 1 | < 1 | < 1 | < 1 | < 1
4 | Fc1ccc(F)c([C@H]2C[C@H](F)CN2c2ccc3nccc(-c4cnn(C5CCOCC5)c4)c3n2)c1 [Example 12, 2-((2R,4S)-2-(2,5-difluorophenyl)-4-fluoropyrrolidin-1-yl)-8-(1-(tetrahydro-2H-pyran-4-yl)-1H-pyrazol-4-yl)-1,5-naphthyridine] | < 1 | < 1 | < 1 | < 1 | < 1
5 | CN1CCC(n2cc(-c3ccnc4ccc(N5C[C@@H](F)C[C@@H]5c5cc(F)ccc5F)nc34)cn2)CC1 [Example 13, 2-((2R,4S)-2-(2,5-difluorophenyl)-4-fluoropyrrolidin-1-yl)-8-(1-(1-methylpiperidin-4-yl)-1H-pyrazol-4-yl)-1,5-naphthyridine] | < 1 | < 1 | < 1 | < 10 | < 1
6 | CC(C)N1CCC(n2cc(-c3ccnc4ccc(N5C[C@@H](F)C[C@@H]5c5cc(F)ccc5F)nc34)cn2)CC1 [Example 14] | < 10 | < 1 | < 1 | < 50 | < 1
7 | Fc1ccc(F)c([C@H]2CCCN2c2ccc3nccc(-c4cnn(C5CCNCC5)c4F)c3n2)c1 [Example 15, (R)-2-(2-(2,5-Difluorophenyl)pyrrolidin-1-yl)-8-(5-fluoro-1-(piperidin-4-yl)-1H-pyrazole-4-yl)-1,5-naphthyridine] | < 1 | < 1 | < 1 | < 10 | < 1
8 | CC1(C)CC(n2cc(-c3ccnc4ccc(N5CCC[C@@H]5c5cc(F)ccc5F)nc34)cn2)CCN1 (stereo partly drawn) [Example 17, 2-((R)-2-(2,5-difluorophenyl)pyrrolidin-1-yl)-8-(1-(2,2-dimethylpiperidin-4-yl)-1H-pyrazol-4-yl)-1,5-naphthyridine] | < 10 | < 10 | < 1 | < 50 | < 10
9 | CC1(C)CC(n2cc(-c3ccnc4ccc(N5C[C@@H](F)C[C@@H]5c5cc(F)ccc5F)nc34)cn2)CCN1 (stereo partly drawn) [Example 18, 2-((2R,4S)-2-(2,5-difluorophenyl)-4-fluoropyrrolidin-1-yl)-8-(1-(2,2-dimethylpiperidin-4-yl)-1H-pyrazol-4-yl)-1,5-naphthyridine] | < 1 | < 10 | < 1 | < 10 | < 1
10 | Fc1ccc(F)c([C@H]2CCCN2c2ccc3ncc(F)c(-c4cnn(C5CCNCC5)c4)c3n2)c1 [Example 21] | < 1 | < 1 | < 1 | < 10 | < 1
11 | O=C(O)[C@H]1CCN(c2ncc(-c3ncnc4ccc(N5C[C@@H](F)C[C@@H]5c5cc(F)ccc5F)nc34)cn2)C1 [Example 87, (S)-1-(5-(6-((2R,4S)-2-(2,5-difluorophenyl)-4-fluoropyrrolidin-1-yl)pyrido[3,2-d]primidin-4-yl)pyrimidin-2-yl)pyrrolidin-3-carboxylic acid] | < 1 | < 1 | < 1 |  | < 1
12 | O=C(O)[C@@H]1CCN(c2ncc(-c3ncnc4ccc(N5C[C@@H](F)C[C@@H]5c5cc(F)ccc5F)nc34)cn2)C1 [Example 88, (R)-1-(5-(6-((2R,4S)-2-(2,5-difluorophenyl)-4-fluoropyrrolidin-1-yl)pyrido[3,2-d]primidin-4-yl)pyrimidin-2-yl)pyrrolidin-3-carboxylic acid] | < 1 | < 1 | < 1 |  | < 1

Now from value to compound:

Row | IC50 (Recombinant human TRKB) [nM] | IC50 [1] [nM] | IC50 (Recombinant human TRKA) [nM] | IC50 [2] [nM] | IC50 (Recombinant human TRKC) [nM] | SMILES
13 | < 10 | < 1 | < 1 |  | < 10 | Fc1ccc(Cl)c([C@H]2CCCN2c2ccc3ncc(F)c(-c4cnn(C5CCNCC5)c4)c3n2)c1 [Example 89, (R)-2-(2-(2-Chloro-5-fluorophenyl)pyrrolidin-1-yl)-7-fluoro-8-(1-(piperidin-4-yl)-1H-pyrazol-4-yl)-1,5-naphthyridine]
14 | < 10 | < 1 | < 1 |  | < 10 | Fc1cnc(Cl)c([C@H]2CCCN2c2ccc3ncc(F)c(-c4cnn(C5CCNCC5)c4)c3n2)c1 [Example 90, (R)-2-(2-(2-Chloro-5-fluoropyridin-3-yl)pyrrolidin-1-yl)-7-fluoro-8-(1-(piperidin-4-yl)-1H-pyrazol-4-yl)-1,5-naphthyridine]
15 | < 1 | < 10 | < 1 |  | < 1 | Fc1ccc(F)c([C@H]2C[C@H](F)CN2c2ccc3ncnc(-c4cnc(C5CCNCC5)nc4)c3n2)c1 [Example 91, 6-((2R,4S)-2-(2,5-Difluorophenyl)-4-fluoropyrrolidin-1-yl)-4-(2-(piperidin-4-yl)pyrimidin-5-yl)pyrido[3,2-d]pyrimidine]
16 | < 1 | < 1 | < 1 |  | < 1 | O=C1N(c2ccnc3ccc(N4C[C@@H](F)C[C@@H]4c4cc(F)ccc4F)nc23)CC12CCNCC2 [Example 94, 2-(6-((2R,4S)-2-(2,5-difluorophenyl)-4-fluoropyrrolidin-1-yl)-1,5-naphthyridin-4-yl)-2,7-diazaspiro[3.5] nonane-1-one]
17 | < 10 | < 1 | < 1 |  | < 1 | O=c1n(-c2ccnc3ccc(N4C[C@@H](F)C[C@@H]4c4cc(F)ccc4F)nc23)ccn1C1CCNCC1 [Example 95, 1-(6-((2R,4S)-2-(2,5-difluorophenyl)-4-fluoropyrrolidin-1-yl)-1,5-naphthyridin-4-yl)-3-(piperidin-4-yl)-1,3-dihydro-2H-imidazol-2-one]
18 | < 10 | < 10 | < 1 |  | < 10 | O=c1n(-c2ncnc3ccc(N4C[C@@H](F)C[C@@H]4c4cc(F)ccc4F)nc23)ccn1C1CCNCC1 [Example 96, 1-(6-((2R,4S)-2-(2,5-difluorophenyl)-4-fluoropyrrolidin-1-yl)pyrido[3,2-d]pyrimidin-4-yl)-3-(piperidin-4-yl)-1,3-dihydro-2H-imidazol-2-one]
